Data from US6770661B2, “Aryl substituted pyridines and their use” (Euro-Celtique S.A., priority 2001, dated 2004).

Target: rBIIa/beta 1 sodium channels expressed in Xenopus oocytes (Rattus norvegicus, UniProt P04775)
Assay: Electrophysiological in vitro assay, two-electrode voltage clamp, sodium channel blockade
Format: cell-based
Details: apparent inhibition constant for the inactivated state, from single point inhibition data; holding potential −120 mV, 4 second depolarization; read-out: RBIIA/β1 Ki
Experimental: Electrophysiological Assay:
Electrophysiological Assay was used to measure potencies of compounds of the present invention rBIIa/beta 1 sodium channels expressed in Xenopus oocytes.
Preparation of cRNA encoding cloned rat brain type IIa (rBIIa) and beta 1 (β1): cDNA clones encoding the rat brain beta 1 subunit were cloned in house using standard methods, and mRNA were prepared by standard methods. mRNA encoding rBIIa was provided by Dr. A. Golden (UC Irvine). The mRNAs were diluted and stored at −80° C. in 1 μL aliquots until injection. […]
Electrophysiology: Membrane current responses were recorded in frog Ringer solution containing 115 mM NaCl, 2 mM KCl, 1.8 mM CaCl2, 5 mM HEPES, pH 7.4. […]
Voltage protocols for evoking sodium channel currents: The standard holding potential for whole oocyte clamp was −120 mV. […] Peak currents were measured as the maximum negative current after depolarizing voltage steps. […]
The purpose was to find compounds that are state dependent modifiers of neuronal sodium channels. […] Sodium currents were measured at this test pulse before and after the application of the tested compound. Data was acquired using pClamp 8.0 software and analyzed with clampfit software (Axon instruments). […]

rBIIa/beta 1 sodium channels expressed in Xenopus oocytes, sequence (P04775 whole entry): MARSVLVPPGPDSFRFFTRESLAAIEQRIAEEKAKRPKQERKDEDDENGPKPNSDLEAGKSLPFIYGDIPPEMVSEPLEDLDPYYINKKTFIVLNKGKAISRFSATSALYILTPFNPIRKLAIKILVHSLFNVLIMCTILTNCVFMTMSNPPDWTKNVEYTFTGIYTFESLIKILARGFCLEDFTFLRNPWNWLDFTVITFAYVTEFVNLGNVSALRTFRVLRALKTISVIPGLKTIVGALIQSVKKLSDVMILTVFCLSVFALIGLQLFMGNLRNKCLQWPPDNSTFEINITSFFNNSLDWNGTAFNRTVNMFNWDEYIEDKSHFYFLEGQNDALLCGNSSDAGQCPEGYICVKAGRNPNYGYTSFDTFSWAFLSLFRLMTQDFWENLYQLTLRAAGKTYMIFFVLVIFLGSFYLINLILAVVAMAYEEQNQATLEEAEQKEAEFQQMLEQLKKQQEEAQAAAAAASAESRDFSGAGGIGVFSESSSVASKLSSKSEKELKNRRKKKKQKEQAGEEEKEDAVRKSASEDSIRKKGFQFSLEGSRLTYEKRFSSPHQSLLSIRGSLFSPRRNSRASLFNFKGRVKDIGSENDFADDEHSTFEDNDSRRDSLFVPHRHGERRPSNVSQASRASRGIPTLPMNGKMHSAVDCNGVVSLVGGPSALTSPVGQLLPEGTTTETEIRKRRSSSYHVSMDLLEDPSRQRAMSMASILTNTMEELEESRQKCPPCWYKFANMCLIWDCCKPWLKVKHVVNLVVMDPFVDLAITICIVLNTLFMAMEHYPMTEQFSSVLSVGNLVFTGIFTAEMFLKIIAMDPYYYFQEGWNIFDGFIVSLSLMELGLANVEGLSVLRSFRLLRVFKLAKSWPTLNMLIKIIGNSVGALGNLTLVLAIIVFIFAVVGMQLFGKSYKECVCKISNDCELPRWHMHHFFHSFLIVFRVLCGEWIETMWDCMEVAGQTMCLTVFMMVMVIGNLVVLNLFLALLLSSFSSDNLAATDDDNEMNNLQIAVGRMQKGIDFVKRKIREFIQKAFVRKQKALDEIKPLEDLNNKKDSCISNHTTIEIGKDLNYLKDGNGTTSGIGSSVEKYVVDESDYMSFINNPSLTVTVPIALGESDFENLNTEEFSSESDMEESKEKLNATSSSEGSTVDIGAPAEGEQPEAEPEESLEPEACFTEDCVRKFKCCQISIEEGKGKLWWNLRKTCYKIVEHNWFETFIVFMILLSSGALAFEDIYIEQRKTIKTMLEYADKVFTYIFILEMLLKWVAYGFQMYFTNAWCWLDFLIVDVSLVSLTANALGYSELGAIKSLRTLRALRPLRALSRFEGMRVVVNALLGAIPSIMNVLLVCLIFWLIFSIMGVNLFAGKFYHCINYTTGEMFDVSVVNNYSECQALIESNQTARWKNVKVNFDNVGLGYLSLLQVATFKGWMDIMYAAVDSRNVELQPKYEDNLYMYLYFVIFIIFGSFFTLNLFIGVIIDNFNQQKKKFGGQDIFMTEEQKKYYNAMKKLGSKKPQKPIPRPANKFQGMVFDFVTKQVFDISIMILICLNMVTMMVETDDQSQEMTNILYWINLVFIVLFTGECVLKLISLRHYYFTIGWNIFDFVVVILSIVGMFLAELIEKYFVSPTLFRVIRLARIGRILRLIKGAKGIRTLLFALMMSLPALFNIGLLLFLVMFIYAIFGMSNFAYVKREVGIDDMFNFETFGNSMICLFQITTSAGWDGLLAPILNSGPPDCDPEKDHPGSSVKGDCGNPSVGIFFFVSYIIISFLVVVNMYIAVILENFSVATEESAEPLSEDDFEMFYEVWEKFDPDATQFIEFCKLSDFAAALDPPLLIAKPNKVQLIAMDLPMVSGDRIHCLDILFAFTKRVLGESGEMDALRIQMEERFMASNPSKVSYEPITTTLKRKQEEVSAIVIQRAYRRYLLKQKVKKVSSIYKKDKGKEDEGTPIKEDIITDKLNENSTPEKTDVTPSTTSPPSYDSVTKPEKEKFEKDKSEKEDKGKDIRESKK
rBIIa/beta 1 sodium channels expressed in Xenopus oocytes, sequence (Q00954 19-218 partner): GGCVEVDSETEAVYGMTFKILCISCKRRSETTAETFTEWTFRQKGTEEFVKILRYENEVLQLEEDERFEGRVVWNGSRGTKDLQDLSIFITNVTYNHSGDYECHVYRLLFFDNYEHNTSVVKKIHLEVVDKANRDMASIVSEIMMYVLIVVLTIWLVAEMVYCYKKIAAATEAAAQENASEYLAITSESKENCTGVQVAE

NC(=O)c1cc(N2CCOCC2)cc(-c2ccc(Oc3ccc(F)cc3)cc2)n1 [2-[4-(4-Fluorophenoxy)phenyl]-4-N-morpholinylpyridine-6-carboxamide] gave a Ki of 290 nM.
Cc1cc(OCCN2CCCCC2)cc(-c2ccc(Oc3ccc(F)cc3)cc2)n1 [2-[4-(4-Fluorophenoxy)phenyl]-6-methyl-4-[2-(N-piperidinyl)ethoxy]-pyridine] gave a Ki of 180 nM.
